In patent US20240156800A1, “EP300 DEGRADER AND USES THEREOF IN NEUROBLASTOMA” (DANA-FARBER CANCER INSTITUTE, INC., priority 2021, published 2024):

Tests used:
CBP [1] = target: T1, CBP (Homo sapiens, UniProt Q92793); assay: Western blotting of CBP in treated NB cells; type: cell-based
T1 construct: Cells growing in culture were lysed for whole cell lysates; endogenous in cells; host or cells: Kelly, NGP, SIMA, BE2C neuroblastoma cells; Kelly xenografts in NSG mice
Protocol: Cells growing in culture were lysed for whole cell lysates as described in Durbin et al. Nat. Genet. 50:1240-1246 (2018) and Wang et al. Nat. Commun. 10:5622 (2019). Nuclear lysates were prepared using the NE-PER® nuclear lysate kit (Thermo Scientific™) according to the manufacturer's protocol. Chromatin lysates were prepared with the total histone extraction kit (Epigentek). Briefly, equivalent amounts of protein were resolved by western blotting using 4-12% Bis-Tris NuPAGE™ gels (Thermo-Fisher Scientific) prior to transfer, and immunoblotting using primary antibodies to: MYCN (1:1000, Cell Signaling Technology®), H3K27ac (1:1000, Abcam), total H3 (1:1000, Cell Signaling Technology®), EP300 (1:1000, Abcam), CBP (1:500, Cell Signaling Technology®), Cas9 (1:1000, Cell Signaling Technology®), cleaved-PARP1 (1:1000, Cell Signaling Technology), cleaved Caspase-3 (1:1000, Cell Signaling Technology®), β-actin (1:1000, Cell Signaling Technology®), GATA3 (1:1000, EMD Millipore™), TFAP2β (1:1000, Cell Signaling Technology®), Vinculin (1:1000, EMD Millipore™), CRBN (1:1000, Cell Signaling Technology®), HAND2 (1:1000, Santa Cruz Biotechnology). Secondary antibodies were horseradish peroxidase (HRP)-conjugated anti-rabbit or anti-mouse (1:5000, Santa Cruz Biotechnology), incubated prior to exposure to enhanced chemiluminescence reagents (GE, Amersham). For immunoprecipitation, equal amounts of protein were diluted in buffer C as described in Mansour et al. Science 346:1373-1377 (2014) and incubated with antibodies covalently conjugated to Dynabeads™ M-270 beads (Thermo-Fisher Scientific) overnight according to the manufacturer's directions. Antibodies used included: H3K27ac, EP300 (Abcam), CBP, TFAP2β (Cell Signaling Technology®), rabbit immunoglobulin G (IgG) (Santa Cruz Biotechnology®). Immunoprecipitated protein was isolated as per the manufacturer's directions and subjected to western blotting, as described above, or mass spectrometry.

[2] = tested on: Kelly-Cas9 control or CRBN knockout cells; assay: CellTiter-Glo assay of Kelly-Cas9 control or CRBN knockout cells; type: cell-based, human; conditions: range of doses, seven days
Protocol: Cells were infected with lentiviruses encoding sgRNAs or treated with compounds as described. Colony assays were performed by replating cells at 500 cells per well in 6-well dishes and grown in regular growth media for 10 d before 100% methanol fixation, 0.05% crystal violet staining, and quantitation. Experiments were completed in triplicate; data shown are the average of three independent experiments. Cell Titer-Glo® assay was performed as per the manufacturer's instructions (Promega®). Briefly, 1000 cells/well were plated into 96-well plates and treated with a range of compound dosing. Cell viability was measured at the noted time points based on luminescence by the Cell Titer-Glo® assay (Promega®) and read on an Envision 2104 (PerkinElmer®, USA) according to the manufacturer's protocol.
sgRNAs targeting individual genes were subcloned by standard methodologies within pLKO.5-EFGP. Kelly, SIMA, BE2C, and NGP cells were infected with lenticas9 followed by blasticidin selection. Stable expression of cas9 was established by western blotting of protein lysates using cas9 antibody (Cell Signaling Technology®). Following infection of pLKO.5-EGFP-sgRNA lentivirus, cells were cultured for the identified times prior to evaluation. BE2C cells were infected with pLC-zsgreen or pLC-CRBN lentiviruses and selected using 500 μg/mL hygromycin (Invitrogen™)

EP300 = target: T2, EP300 (Homo sapiens, UniProt Q09472); assay: Immunohistochemistry of EP300 in Kelly cell xenografts; type: in vivo; conditions: 40 mg/Kg once daily
T2 construct: Cells growing in culture were lysed for whole cell lysates; endogenous in cells; host or cells: Kelly, NGP, SIMA, BE2C neuroblastoma cells; Kelly xenografts in NSG mice
Protocol: Separately, eight animals were xenografted as described above, and treated with vehicle (n=4) or JQAD1 (n=4) at 40 mg/kg IP daily for 14 days. These animals were sacrificed at day 14, following which tumor was extracted, and divided for immunohistochemical analysis or analysis of RNA expression by RNA sequencing (RNA-seq). Immunohistochemistry was performed on the Leica® Bond™ III automated staining platform. Antibody EP300 from Cell Signaling Technology®, catalog number 86377, clone D8Z4E, was run at 1:50 dilution using the Leica® Biosystems Refine Detection Kit with citrate antigen retrieval. Antibody KAT3A/CBP (catalog number ab2832, polyclonal, Abcam) was run at 1:200 using the Leica® Biosystems Refine Detection Kit with ethylenediaminetetraacetic acid (EDTA) antigen retrieval.

CBP [3] = target: T3, CBP (Mus musculus, UniProt P45481); assay: Immunohistochemistry of CBP in liver of Crbn ILE391VAL knockin mice; type: in vivo; conditions: 40 mg/Kg IP daily, 14 days
T3 construct: from tissue; host or cells: liver of Balb/c Crbn^ILE391VAL knock-in mice
T3 sequence (P45481 whole entry): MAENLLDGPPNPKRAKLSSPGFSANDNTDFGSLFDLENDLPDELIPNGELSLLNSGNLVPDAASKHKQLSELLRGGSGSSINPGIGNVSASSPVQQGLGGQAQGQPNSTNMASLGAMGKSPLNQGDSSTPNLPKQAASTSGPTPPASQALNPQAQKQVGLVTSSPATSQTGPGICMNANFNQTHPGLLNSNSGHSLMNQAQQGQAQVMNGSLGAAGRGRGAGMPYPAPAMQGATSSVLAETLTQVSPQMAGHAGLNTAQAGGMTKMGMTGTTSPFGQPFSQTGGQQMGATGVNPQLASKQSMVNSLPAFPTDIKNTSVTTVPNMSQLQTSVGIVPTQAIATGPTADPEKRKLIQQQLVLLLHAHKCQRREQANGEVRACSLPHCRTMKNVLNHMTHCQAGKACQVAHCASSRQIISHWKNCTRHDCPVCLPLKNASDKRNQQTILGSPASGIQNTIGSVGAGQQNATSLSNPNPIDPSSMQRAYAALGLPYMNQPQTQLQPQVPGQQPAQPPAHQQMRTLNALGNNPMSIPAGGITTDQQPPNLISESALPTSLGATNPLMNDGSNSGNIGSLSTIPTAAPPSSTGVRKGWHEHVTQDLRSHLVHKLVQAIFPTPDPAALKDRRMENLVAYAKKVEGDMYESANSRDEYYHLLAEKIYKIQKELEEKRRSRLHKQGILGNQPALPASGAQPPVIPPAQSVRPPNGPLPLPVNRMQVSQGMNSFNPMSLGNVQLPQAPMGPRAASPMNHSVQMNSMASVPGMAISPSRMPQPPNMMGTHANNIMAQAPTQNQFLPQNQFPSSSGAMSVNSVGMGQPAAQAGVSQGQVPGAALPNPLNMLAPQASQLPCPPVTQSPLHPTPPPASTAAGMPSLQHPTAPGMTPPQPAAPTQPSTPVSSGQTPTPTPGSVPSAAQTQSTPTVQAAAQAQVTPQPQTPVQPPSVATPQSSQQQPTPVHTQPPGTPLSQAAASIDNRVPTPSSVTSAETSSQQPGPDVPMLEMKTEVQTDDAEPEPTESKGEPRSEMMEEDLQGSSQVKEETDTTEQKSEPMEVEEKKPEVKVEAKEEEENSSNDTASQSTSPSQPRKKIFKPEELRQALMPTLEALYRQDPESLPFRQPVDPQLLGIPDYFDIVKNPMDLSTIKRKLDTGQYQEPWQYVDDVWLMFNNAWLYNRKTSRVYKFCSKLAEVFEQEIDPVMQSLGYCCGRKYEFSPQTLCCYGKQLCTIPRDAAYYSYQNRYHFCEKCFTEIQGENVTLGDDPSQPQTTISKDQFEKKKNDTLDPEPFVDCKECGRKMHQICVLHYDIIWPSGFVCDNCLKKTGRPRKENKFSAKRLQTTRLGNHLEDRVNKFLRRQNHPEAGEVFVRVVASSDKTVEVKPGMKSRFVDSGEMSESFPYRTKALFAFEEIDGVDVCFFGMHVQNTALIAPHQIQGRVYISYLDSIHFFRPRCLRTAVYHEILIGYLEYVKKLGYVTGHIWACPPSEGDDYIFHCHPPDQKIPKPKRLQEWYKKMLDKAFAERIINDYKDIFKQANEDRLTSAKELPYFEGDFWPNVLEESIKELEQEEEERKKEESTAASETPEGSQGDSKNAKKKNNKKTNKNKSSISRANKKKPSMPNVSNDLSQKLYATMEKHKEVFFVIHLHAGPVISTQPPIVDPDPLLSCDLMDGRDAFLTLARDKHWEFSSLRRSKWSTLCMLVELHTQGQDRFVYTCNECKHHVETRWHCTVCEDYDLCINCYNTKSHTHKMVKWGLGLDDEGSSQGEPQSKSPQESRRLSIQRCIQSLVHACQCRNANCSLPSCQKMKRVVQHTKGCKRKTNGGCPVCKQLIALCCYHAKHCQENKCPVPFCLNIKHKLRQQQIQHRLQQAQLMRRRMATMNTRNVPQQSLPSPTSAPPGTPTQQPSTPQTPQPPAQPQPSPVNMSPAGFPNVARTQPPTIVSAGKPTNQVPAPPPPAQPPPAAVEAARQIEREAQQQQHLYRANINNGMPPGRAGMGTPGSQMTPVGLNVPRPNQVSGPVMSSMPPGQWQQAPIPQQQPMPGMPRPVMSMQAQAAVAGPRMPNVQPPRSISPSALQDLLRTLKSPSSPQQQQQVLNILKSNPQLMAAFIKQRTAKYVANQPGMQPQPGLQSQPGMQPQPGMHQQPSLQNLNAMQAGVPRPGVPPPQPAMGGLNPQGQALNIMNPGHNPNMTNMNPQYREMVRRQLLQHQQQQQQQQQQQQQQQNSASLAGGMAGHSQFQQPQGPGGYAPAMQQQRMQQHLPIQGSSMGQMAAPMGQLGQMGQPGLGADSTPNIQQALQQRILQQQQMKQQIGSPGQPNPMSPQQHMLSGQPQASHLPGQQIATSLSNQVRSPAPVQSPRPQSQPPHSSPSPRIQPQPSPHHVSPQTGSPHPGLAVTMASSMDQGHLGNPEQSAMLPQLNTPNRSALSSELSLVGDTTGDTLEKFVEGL
Protocol: For toxicity studies, four female CD1 mice (Charles River Laboratories) were injected intraperitoneally (IP) with single doses of 10 mg/Kg (R,S)-JQAD1 solubilized in 10% hydroxypropyl β-cyclodextrin (Sigma-Aldrich®) in sterile water. Following injection, blood concentration of (R,S)-JQAD1 was measured by serial measurements of animal serum at time points out to 24 h, by liquid chromatography with tandem mass spectrometry (LC-MS/MS) analysis. Pharmacokinetics were performed at ChemPartner in Shanghai, China, using LC-MS/MS method and pharmacokinetics parameters (Tmax, Cmax, T1/2, AUC, etc.) calculated with WinNonlin® V 6.2 statistics software (Pharsight Corporation) using a noncompartmental model. For maximally tolerated dose (MTD) testing, six female CD1 mice were treated with daily IP doses of (R,S)-JQAD1 at 10, 20, or 40 mg/kg. Animals were monitored for animal weight, grooming and behavior daily without noted effects. […] Animal weights, behavior and grooming were monitored daily, for a total of 21 days. […] Blood samples were obtained by retro-orbital puncture and blood analyzed at the Small Animal Imaging Facility at Beth Israel Deaconess Medical Center (Boston, MA), on a Hemavet® 9500FS (Drew Scientific) for blood counts, creatinine, AST, ALT, ALP, GGTP, and BUN measurements. […]

T1 sequence (Q92793 whole entry): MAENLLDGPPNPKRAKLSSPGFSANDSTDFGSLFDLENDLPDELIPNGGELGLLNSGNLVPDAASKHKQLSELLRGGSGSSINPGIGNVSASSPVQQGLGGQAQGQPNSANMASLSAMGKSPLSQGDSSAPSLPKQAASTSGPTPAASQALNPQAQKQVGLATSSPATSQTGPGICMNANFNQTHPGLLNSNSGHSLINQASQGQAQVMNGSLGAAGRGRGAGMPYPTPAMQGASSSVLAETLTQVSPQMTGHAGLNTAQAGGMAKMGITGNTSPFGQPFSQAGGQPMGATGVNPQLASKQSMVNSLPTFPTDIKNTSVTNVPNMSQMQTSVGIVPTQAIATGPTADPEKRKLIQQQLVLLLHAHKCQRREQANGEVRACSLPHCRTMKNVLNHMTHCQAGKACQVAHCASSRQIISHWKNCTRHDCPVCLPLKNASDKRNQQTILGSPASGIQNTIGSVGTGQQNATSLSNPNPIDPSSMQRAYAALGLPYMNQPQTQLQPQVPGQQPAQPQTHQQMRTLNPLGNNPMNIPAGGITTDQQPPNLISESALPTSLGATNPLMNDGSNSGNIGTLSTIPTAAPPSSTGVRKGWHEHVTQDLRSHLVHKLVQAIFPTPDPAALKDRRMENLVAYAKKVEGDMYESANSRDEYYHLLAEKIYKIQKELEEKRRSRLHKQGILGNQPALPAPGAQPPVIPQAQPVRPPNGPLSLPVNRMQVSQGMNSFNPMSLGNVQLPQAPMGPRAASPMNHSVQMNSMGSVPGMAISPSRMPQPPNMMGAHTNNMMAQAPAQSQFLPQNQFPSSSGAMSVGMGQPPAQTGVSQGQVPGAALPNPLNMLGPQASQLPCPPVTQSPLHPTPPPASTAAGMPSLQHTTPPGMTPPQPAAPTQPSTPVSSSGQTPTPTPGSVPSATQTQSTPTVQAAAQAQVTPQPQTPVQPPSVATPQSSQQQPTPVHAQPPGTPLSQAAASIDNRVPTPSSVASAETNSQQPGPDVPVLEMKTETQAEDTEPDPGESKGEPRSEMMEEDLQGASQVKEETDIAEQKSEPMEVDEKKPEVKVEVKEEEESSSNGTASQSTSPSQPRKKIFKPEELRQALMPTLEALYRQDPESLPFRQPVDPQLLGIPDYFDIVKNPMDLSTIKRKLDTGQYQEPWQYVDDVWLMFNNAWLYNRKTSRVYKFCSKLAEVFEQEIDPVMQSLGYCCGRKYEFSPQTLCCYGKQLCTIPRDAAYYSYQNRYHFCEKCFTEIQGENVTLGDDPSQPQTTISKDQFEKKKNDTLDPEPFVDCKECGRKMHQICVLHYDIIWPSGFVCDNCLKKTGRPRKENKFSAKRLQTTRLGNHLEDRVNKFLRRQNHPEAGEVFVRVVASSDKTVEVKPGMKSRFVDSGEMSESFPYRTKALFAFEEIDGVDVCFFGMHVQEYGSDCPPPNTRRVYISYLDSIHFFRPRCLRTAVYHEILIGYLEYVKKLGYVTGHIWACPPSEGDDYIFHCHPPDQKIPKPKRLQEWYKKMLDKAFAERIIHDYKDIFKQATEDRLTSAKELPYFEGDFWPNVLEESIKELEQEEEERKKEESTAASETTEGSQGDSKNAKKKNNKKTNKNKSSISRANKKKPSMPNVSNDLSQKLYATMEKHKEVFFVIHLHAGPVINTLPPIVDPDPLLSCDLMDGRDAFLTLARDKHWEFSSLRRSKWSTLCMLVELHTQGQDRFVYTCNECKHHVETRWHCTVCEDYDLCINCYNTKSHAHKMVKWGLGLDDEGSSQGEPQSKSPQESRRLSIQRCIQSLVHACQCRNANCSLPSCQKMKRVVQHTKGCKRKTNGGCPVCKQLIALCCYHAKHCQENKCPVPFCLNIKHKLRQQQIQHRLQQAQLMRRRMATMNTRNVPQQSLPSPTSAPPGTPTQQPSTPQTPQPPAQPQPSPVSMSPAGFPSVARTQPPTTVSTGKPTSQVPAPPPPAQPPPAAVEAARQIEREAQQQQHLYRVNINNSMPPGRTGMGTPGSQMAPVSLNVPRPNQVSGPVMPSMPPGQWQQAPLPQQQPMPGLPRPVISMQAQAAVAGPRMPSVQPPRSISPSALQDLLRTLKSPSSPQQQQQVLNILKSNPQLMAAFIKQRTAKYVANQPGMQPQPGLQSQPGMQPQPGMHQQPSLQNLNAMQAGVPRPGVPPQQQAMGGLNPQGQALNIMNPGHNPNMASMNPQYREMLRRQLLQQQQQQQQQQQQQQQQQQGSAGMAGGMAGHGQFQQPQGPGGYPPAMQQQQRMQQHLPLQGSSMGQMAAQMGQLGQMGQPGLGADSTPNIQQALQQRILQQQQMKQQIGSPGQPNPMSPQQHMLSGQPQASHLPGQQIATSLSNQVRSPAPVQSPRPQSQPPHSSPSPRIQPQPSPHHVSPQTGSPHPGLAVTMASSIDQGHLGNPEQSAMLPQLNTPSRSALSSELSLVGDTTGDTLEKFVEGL

C[C@H](N(Cc1ccc(F)cc1)C(=O)CN1C(=O)O[C@@]2(CCc3cc(NC(=O)CCCCCCCCCCCNc4ccc5c(c4)C(=O)N(C4CCC(=O)NC4=O)C5=O)ccc32)C1=O)C(F)(F)F (stereo partly drawn) [JQAD1, 12-((2-(2,6-dioxopiperidin-3-yl)-1,3-dioxoisoindolin-5-yl)amino)-N-((R)-3′-(2-((4-fluorobenzyl)((S)-1,1,1-trifluoropropan-2-yl)amino)-2-oxoethyl)-2′,4′-dioxo-2,3-dihydrospiro[indene-1,5′-oxazolidin]-5-yl)dodecanamide]
CBP expression levels (CBP [1]; Kelly cells, 24 h): neither compound had significant effects on expression levels of CBP | CBP detection at 24 h (CBP [1]; Kelly, NGP and SIMA cells, 24 h): could still be detected | CBP expression with extended treatment (CBP [1]; Kelly, NGP and SIMA cells, extended treatment): loss of CBP expression was observed | growth of CRBN-knockout Kelly cells [2]: resistant | growth of control-edited Kelly cells [2]: potently killed | EP300 immunostaining of tumors (EP300): loss of EP300 immunostaining compared with vehicle control tumors | CBP in liver (CBP [3]): CBP remained detectable by immunohistochemistry
